The structures appear in SMILES notation. Where a name gives a salt, the structure may show the parent alone.

This assay has as its target T1, KHK (Homo sapiens, UniProt P50053).
T1 construct: (His)6 tag (N); thrombin cleavage site (N); made in house; host or cells: E. coli BL-21 (DE3)
T1 sequence (P50053 1-298): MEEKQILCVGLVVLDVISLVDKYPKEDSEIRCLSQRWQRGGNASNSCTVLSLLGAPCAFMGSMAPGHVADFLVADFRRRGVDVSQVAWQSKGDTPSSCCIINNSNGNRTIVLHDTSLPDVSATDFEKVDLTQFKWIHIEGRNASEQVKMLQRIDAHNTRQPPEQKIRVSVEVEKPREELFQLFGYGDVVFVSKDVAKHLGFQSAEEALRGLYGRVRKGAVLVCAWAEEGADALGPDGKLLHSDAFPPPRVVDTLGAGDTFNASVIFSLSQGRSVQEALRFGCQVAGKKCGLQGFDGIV
As to the kind of experiment: coupled enzyme assay for KHK activity. The settings on record: purified human recombinant KHK, PK/LDH coupled assay, A340 at 25° C., 0.1 mM ATP, 0.2 mM fructose; isoform (KHK-C or KHK-A) not given. Type of assay: biochemical. The text has this: Specific coupled enzyme screening assays were developed for KHK-C and KHK-A using recombinant proteins. Purified human recombinant KHK-C and KHK-A were produced using by expression in E. coli BL-21 (DE3) using IPTG induction as a His-tagged fusion proteins and purified using Ni-NTA chromatography on His-Trap FF columns. For KHK-C, the coding region from NCBI refseq number NM_006488 was inserted at the Nde I site of pET28a(+) vector, which puts it downstream from an amino-terminal (His)6 tag and a thrombin cleavage site. The same was done for KHK-A using the coding regions from NCBI refseq number NM_000221.2. The protein was expressed in BL-21 (DE3) using IPTG induction and purified using Ni-NTA (GE His Trap FF) column. The protein was washed with 100 column volumes, eluted with 3 column volumes, and dialyzed with HEPES, pH 7.4 buffers containing 20, 500, and 0 mM imidazole, respectively. The dialysate was concentrated by ultrafiltration (10kD MWCO) to >15 mg/mL protein. The protein prep was >95% pure on SDS-PAGE and the molecular weight was confirmed by relative mobility to be 33,730 Da (34,826 expected).
The assay uses the product of the KHK reaction, ADP, to drive a signal measured in real time for measuring the reaction rate. This consists of a 3-step, coupled-enzyme process by which pyruvate kinase (PK), which converts the ADP from the KHK reaction along with phosphoenolpyruvate (PEP) to ATP and pyruvate, respectively. The pyruvate is converted along with NADH to lactate and NAD+ by lactate dehydrogenase (LDH). The disappearance of NADH is measured kinetically by monitoring A340 at 25° C. for 15 minutes. The enzymatic assay was carried out in a total reaction volume of 200 μL containing 33 mM triethanolamine-HCl, pH 7.4, 6 mM MgCl2, 100 mM KCl, 0.1 mM ATP, 1.33 mM PEP, 0.3 mM NADH, 0.2-1.0 U of PK, 0.2-1.0 U of LDH, and 150-240 nM KHK-C or KHK-A (0.01-0.02 U). Fructose was added to initiate the reactions to 0.2 mM, except for the no fructose controls which utilized water. This high-throughput assay was used to identify inhibitors that have an IC50 value<1 μM for KHK-C and to confirm that those values for KHK-A were not more than 2-fold lower.

`Cc1cccc(-n2ncc3cnc(NC(=O)[C@@H](N)CO)cc32)c1` [Compound 44, (S)-2-amino-3-hydroxy-N-(1-(m-tolyl)-1H-pyrazolo[4,3-c]pyridin-6-yl)propanamide hydrochloride]: the IC50 worked out at 15 µM. As for `Cc1cccc(-n2ncc3c(F)cc(NC(=O)[C@H]4NCC[C@@H]4O)cc32)c1` [Compound 19, (2S,3S)-N-(4-fluoro-1-(m-tolyl)-1H-indazol-6-yl)-3-hydroxypyrrolidine-2-carboxamide hydrochloride], the IC50 was determined as 0.52 µM. With `Cc1cccc(-n2nnc3ccc(NC(=O)[C@@H](N)CO)cc32)c1` [Compound 40, (S)-2-amino-3-hydroxy-N-(1-(m-tolyl)-1H-benzo[d][1,2,3]triazol-6-yl)propanamide hydrochloride] the figure was 0.14 µM. On to `Cc1cccc(-n2ncc3ccc(NC(=O)[C@H](C)N)cc32)c1` [Compound 6, (S)-2-amino-N-(1-(m-tolyl)-1H-indazol-6-yl)propanamide hydrochloride], for which the IC50 was found to be 0.11 µM. With `Cc1cccc(-n2ncc3ccc(NC(=O)[C@H]4NCC[C@@H]4O)cc32)c1` [Compound 18, (2S,3S)-3-hydroxy-N-(1-(m-tolyl)-1H-indazol-6-yl)pyrrolidine-2-carboxamide hydrochloride] the figure was 0.7 µM. Next, `Cc1cccc(-n2ncc3ccc(NC(=O)C(N)CO)cc32)c1` (stereo not shown) [Compound 1, 2-amino-3-hydroxy-N-(1-(m-tolyl)-1H-indazol-6-yl)propanamide hydrochloride]: 0.12 µM; `Cc1cccc(-n2ncc3ccc(NC(=O)[C@H](N)CO)cc32)c1` [Compound 2, (R)-2-amino-3-hydroxy-N-(1-(m-tolyl)-1H-indazol-6-yl)propanamide hydrochloride]: 0.12 µM; `CC(=O)OC[C@H](NC(=O)OC(C)C)C(=O)Nc1ccc2cnn(-c3cccc(C)c3)c2c1` [Compound 31, (S)-2-((isopropoxycarbonyl)amino)-3-oxo-3-((1-(m-tolyl)-1H-indazol-6-yl)amino)propyl acetate]: 30 µM. Consider `CCCCCCCC(=O)OC[C@H](NC(=O)OCC)C(=O)Nc1ccc2cnn(-c3cccc(C)c3)c2c1` [Compound 34, (S)-2-((ethoxycarbonyl)amino)-3-oxo-3-((1-(m-tolyl)-1H-indazol-6-yl)amino)propyl octanoate], for which the IC50 was above 1000 µM. With `CCOC(=O)N[C@@H](CO)C(=O)Nc1ccc2cnn(-c3cccc(C)c3)c2c1` [Compound 36, (S)-ethyl (3-hydroxy-1-oxo-1-((1-(m-tolyl)-1H indazol-6-yl)amino)propan-2-yl)carbamate] the figure was 0.4 µM. With `Cc1cccc(-n2ncc3ccc(NC(=O)[C@@H](N)CN)cc32)c1` [Compound 15, (S)-2,3-diamino-N-(1-(m-tolyl)-1H-indazol-6-yl)propanamide dihydrochloride] the figure was 0.63 µM; with `Cc1cccc(-n2ncc3ccc(NC(=O)[C@@H](N)C(C)(C)O)cc32)c1` [Compound 21, (S)-2-amino-3-hydroxy-3-methyl-N-(1-(m-tolyl)-1H-indazol-6-yl]butanamide hydrochloride], 3.6 µM; with `Cc1cccc(-n2ncc3ncc(NC(=O)[C@@H](N)CO)cc32)c1` [Compound 45, (S)-2-amino-3-hydroxy-N-(1-(m-tolyl)-1H-pyrazolo[4,3-b]pyridin-6-yl)propanamide hydrochloride], 0.25 µM.
